Measured values from PubChem BioAssay (NCI).
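Assay format: 96-well plates, 48-hour exposure. The concentration for 50% growth inhibition is given as GI50. TGI: total growth inhibition.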

How the values were obtained:
Test in all cases: NCI anticancer screen, dose series, 48 h
[1] = test system: 786-0 renal
[2] = test system: A498 renal
[3] = test system: A549 NSCLC
[4] = test system: ACHN renal
[5] = test system: BT-549 breast
[6] = test system: CAKI-1 renal
[7] = test system: CCRF-CEM leukemia
[8] = test system: COLO 205 colon
[9] = test system: DU-145 prostate
[10] = test system: EKVX NSCLC
[11] = test system: HCC-2998 colon
[12] = test system: HCT-116 colon
[13] = test system: HCT-15 colon
[14] = test system: HL-60(TB) leukemia
[15] = test system: HOP-62 NSCLC
[16] = test system: HOP-92 NSCLC
[17] = test system: HS 578T breast
[18] = test system: HT29 colon
[19] = test system: IGROV1 ovarian
[20] = test system: K-562 leukemia
[21] = test system: KM12 colon
[22] = test system: M14 melanoma
[23] = test system: MALME-3M melanoma
[24] = test system: MCF7 breast
[25] = test system: MDA-MB-231 breast
[26] = test system: MDA-MB-435
[27] = test system: MOLT-4 leukemia
[28] = test system: NCI-H226 lung
[29] = test system: NCI-H23 lung
[30] = test system: NCI-H460 lung
[31] = test system: NCI-H522 lung
[32] = test system: NCI/ADR-RES ovarian
[33] = test system: OVCAR-4 ovarian
[34] = test system: OVCAR-5 ovarian
[35] = test system: OVCAR-8 ovarian
[36] = test system: PC-3 prostate
[37] = test system: RPMI-8226 leukemia
[38] = test system: RXF 393 renal
[39] = test system: SF-268 CNS
[40] = test system: SF-295 CNS
[41] = test system: SF-539 CNS
[42] = test system: SK-MEL-2 melanoma
[43] = test system: SK-MEL-28 melanoma
[44] = test system: SK-MEL-5 melanoma
[45] = test system: SK-OV-3 ovarian
[46] = test system: SN12C renal
[47] = test system: SNB-19 CNS
[48] = test system: SNB-75 CNS
[49] = test system: SR leukemia
[50] = test system: SW-620 colon
[51] = test system: T-47D breast
[52] = test system: TK-10 renal
[53] = test system: U251 CNS
[54] = test system: UACC-257 melanoma
[55] = test system: UACC-62 melanoma
[56] = test system: UO-31 renal

SMILES: Cn1ccnc1C(=O)/C=C/C=C/c1ccc(C(=O)Nc2ccc(F)cc2)cc1
- GI50 [1]: 778 nM
- TGI [1]: 1880 nM
- GI50 [2]: 2600 nM
- TGI [2]: 26900 nM
- GI50 [3]: 5360 nM
- TGI [3]: > 33300 nM
- GI50 [4]: 1150 nM
- TGI [4]: 5540 nM
- GI50 [5]: 1320 nM
- TGI [5]: 15100 nM
- GI50 [6]: 3220 nM
- TGI [6]: > 33300 nM
- GI50 [7]: 731 nM
- TGI [7]: > 33300 nM
- GI50 [8]: 5610 nM
- TGI [8]: > 33300 nM
- GI50 [9]: 1520 nM
- TGI [9]: > 33300 nM
- GI50 [10]: 1260 nM
- TGI [10]: 12100 nM
- GI50 [11]: 2610 nM
- TGI [11]: 8770 nM
- GI50 [12]: 666 nM
- TGI [12]: 1570 nM
- GI50 [13]: 568 nM
- TGI [13]: 1250 nM
- GI50 [14]: 956 nM
- TGI [14]: 7200 nM
- GI50 [15]: 8470 nM
- TGI [15]: > 33300 nM
- GI50 [16]: 3140 nM
- TGI [16]: 20500 nM
- GI50 [17]: 2270 nM
- TGI [17]: > 33300 nM
- GI50 [18]: 890 nM
- TGI [18]: 2490 nM
- GI50 [19]: 846 nM
- TGI [19]: 2610 nM
- GI50 [20]: 828 nM
- TGI [20]: > 33300 nM
- GI50 [21]: 6790 nM
- TGI [21]: > 33300 nM
- GI50 [22]: 1930 nM
- TGI [22]: 28700 nM
- GI50 [23]: 1290 nM
- TGI [23]: 6580 nM
- GI50 [24]: 917 nM
- TGI [24]: > 33300 nM
- GI50 [25]: 1410 nM
- TGI [25]: > 33300 nM
- GI50 [26]: 1070 nM
- TGI [26]: 4450 nM
- GI50 [27]: 1020 nM
- TGI [27]: > 33300 nM
- GI50 [28]: 2180 nM
- TGI [28]: 12800 nM
- GI50 [29]: 1040 nM
- TGI [29]: 4460 nM
- GI50 [30]: 1940 nM
- TGI [30]: 10600 nM
- GI50 [31]: 1640 nM
- TGI [31]: 16800 nM
- GI50 [32]: 2020 nM
- TGI [32]: > 33300 nM
- GI50 [33]: 6060 nM
- TGI [33]: > 33300 nM
- GI50 [34]: 1730 nM
- TGI [34]: 16800 nM
- GI50 [35]: 1200 nM
- TGI [35]: > 33300 nM
- GI50 [36]: 1260 nM
- TGI [36]: > 33300 nM
- GI50 [37]: 699 nM
- TGI [37]: 2270 nM
- GI50 [38]: 711 nM
- TGI [38]: 1920 nM
- GI50 [39]: 1540 nM
- TGI [39]: > 33300 nM
- GI50 [40]: 9490 nM
- TGI [40]: > 33300 nM
- GI50 [41]: 858 nM
- TGI [41]: 2440 nM
- GI50 [42]: 17900 nM
- TGI [42]: > 33300 nM
- GI50 [43]: 2410 nM
- TGI [43]: > 33300 nM
- GI50 [44]: 2650 nM
- TGI [44]: 12000 nM
- GI50 [45]: 11000 nM
- TGI [45]: > 33300 nM
- GI50 [46]: 1540 nM
- TGI [46]: 14200 nM
- GI50 [47]: 2050 nM
- TGI [47]: > 33300 nM
- GI50 [48]: 1180 nM
- TGI [48]: 29300 nM
- GI50 [49]: 468 nM
- TGI [49]: > 33300 nM
- GI50 [50]: 796 nM
- TGI [50]: 2040 nM
- GI50 [51]: 2010 nM
- TGI [51]: > 33300 nM
- GI50 [52]: 27700 nM
- TGI [52]: > 33300 nM
- GI50 [53]: 911 nM
- TGI [53]: 8200 nM
- GI50 [54]: 14100 nM
- TGI [54]: > 33300 nM
- GI50 [55]: 3480 nM
- TGI [55]: 15400 nM
- GI50 [56]: 1420 nM
- TGI [56]: 7160 nM
